Assay results from PMC6470675, “Design and Synthesis of New Quinoxaline Derivatives as Anticancer Agents and Apoptotic Inducers” (Molecules, 2019).
Where two headings read alike, the source gives them in different places.

Tests used:
[1] = test system: HCT116 human colon carcinoma cell line; assay: In vitro cell proliferation (MTT) assay, HCT116; assay type: cell-based; conditions: for IC50: Homo sapiens, HCT-116, MTT, 72 h exposure
Procedure: (§1) The targeted compounds were tested for their in-vitro anti-cancer activity against three tumor cell lines (HCT116, Hep G2 and MCF-7). Doxorubicin was included in the experiments as a reference cytotoxic compound. Exponentially growing cells from different cancer cell lines were trypsinized, counted and seeded at the appropriate densities into 96-well microtiter plates. Cells then were incubated in a humidified atmosphere at 37 °C for 24 h. Then, cells were exposed to different concentrations of compounds for 72 h. Then the viability of treated cells was determined using MTT technique (described latter).
(§2) Three cancer cell lines including human colon carcinoma (HCT116), human breast adenocarcinoma (MCF-7) and human hepatocellular carcinoma (Hep G2), were purchased from American Type Cell Culture Collection (ATCC, Manassas, VA, USA) and grown on the appropriate growth medium Dulbecco’s modified Eagle’s medium (DMEM) or Roswell Park Memorial Institute medium (RPMI 1640) supplemented with […] of streptomycin, 100 units/mL of penicillin and 10% of heat-inactivated fetal bovine serum in a humidified, 5% (v/v) CO2 atmosphere at 37 °C [34]. Cytotoxicity assay by 3-[4,5-dimethylthiazole-2-yl]-2,5-diphenyltetrazolium bromide (MTT).
(§3) Exponentially growing cells from different cancer cell lines were trypsinized, counted and seeded at the appropriate densities (2000–1000 cells/0.33 cm^2 well) into 96-well microtiter plates. Cells then were incubated in a humidified atmosphere at 37 °C for 24 h. Then, cells were exposed to different concentrations of compounds (0.1, 10, 100, 1000 µM) for 72 h. Then the viability of treated cells was determined using MTT technique as follow. Media were removed; cells were incubated with 200 μL of 5% MTT solution/well (Sigma Aldrich, Darmstadt, Germany) and were allowed to metabolize the dye into a colored-insoluble formazan crystal for 2 h. The remaining MTT solution were discarded from the wells and the formazan crystals were dissolved in 200 µl/well acidified isopropanol for 30 min, covered with aluminum foil and with continuous shaking using a MaxQ 2000 plate shaker (Thermo Fisher Scientific Inc, Waltham, MA, USA) at room temperature. Absorbance were measured at 570 nm using a Stat Fax^R 4200 plate reader (Awareness Technology, Inc., Awareness Technology, FL, USA). The cell viability was expressed as percentage of control and the concentration that induces 50% of maximum inhibition of cell proliferation (IC50) were determined using Graph Pad Prism version 5 software (Graph Pad Software Inc, San Diego, CA, USA) (1,2).

[2] = test system: Hep G2 human hepatocellular carcinoma cell line; assay: In vitro cell proliferation (MTT) assay, Hep G2; assay type: cell-based; conditions: for IC50: Homo sapiens, HepG2, MTT, 72 h exposure
Procedure: as §1, §2, §3

[3] = test system: MCF-7 human breast adenocarcinoma cell line; assay: In vitro cell proliferation (MTT) assay, MCF-7; assay type: cell-based; conditions: for IC50: Homo sapiens, MCF7, MTT, 72 h exposure
Procedure: as §1, §2, §3

VEGFR-2 = biological target: T1, VEGFR-2 (Homo sapiens, UniProt P35968); assay: In vitro VEGFR-2 inhibition assay (Kinase-Glo Plus luminescence); assay type: biochemical; conditions: read-out: % of VEGFR-2 Inhibition
T1 construct: purchased Bio Science Corporation (BPS), San Diego, CA, USA
T1 sequence (P35968 20-1356): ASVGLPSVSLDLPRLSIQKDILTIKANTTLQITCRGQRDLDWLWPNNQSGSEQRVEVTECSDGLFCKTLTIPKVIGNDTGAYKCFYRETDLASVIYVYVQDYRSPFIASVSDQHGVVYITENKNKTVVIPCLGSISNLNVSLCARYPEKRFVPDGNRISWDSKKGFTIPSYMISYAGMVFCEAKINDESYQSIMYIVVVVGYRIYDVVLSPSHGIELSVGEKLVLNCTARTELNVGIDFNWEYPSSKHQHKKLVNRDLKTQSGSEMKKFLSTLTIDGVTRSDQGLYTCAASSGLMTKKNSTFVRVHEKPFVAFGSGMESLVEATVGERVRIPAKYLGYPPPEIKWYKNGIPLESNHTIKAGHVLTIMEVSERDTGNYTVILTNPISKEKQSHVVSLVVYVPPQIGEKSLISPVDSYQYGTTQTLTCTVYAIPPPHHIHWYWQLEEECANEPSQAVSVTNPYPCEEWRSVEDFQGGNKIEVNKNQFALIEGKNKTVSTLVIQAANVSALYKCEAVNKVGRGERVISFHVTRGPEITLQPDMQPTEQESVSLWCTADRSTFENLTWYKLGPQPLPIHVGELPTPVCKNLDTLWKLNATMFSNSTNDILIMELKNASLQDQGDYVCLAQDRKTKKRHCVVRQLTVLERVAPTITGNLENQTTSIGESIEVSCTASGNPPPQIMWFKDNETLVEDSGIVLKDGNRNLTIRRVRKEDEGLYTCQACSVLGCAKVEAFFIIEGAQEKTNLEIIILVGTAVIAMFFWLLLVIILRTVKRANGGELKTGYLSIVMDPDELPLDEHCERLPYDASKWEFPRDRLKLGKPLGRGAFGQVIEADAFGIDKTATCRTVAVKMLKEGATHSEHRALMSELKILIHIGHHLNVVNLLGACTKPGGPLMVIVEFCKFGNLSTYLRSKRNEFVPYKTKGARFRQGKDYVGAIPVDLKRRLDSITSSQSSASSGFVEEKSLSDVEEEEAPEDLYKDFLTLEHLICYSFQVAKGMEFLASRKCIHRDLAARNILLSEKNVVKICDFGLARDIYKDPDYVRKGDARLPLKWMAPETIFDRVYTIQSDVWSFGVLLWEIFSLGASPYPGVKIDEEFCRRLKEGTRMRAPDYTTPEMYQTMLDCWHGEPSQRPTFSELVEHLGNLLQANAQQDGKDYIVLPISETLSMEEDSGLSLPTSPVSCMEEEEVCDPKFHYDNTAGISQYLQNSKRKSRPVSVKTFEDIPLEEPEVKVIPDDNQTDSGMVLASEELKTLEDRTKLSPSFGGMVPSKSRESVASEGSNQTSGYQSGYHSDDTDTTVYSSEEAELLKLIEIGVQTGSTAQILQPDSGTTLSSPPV
Procedure: In an attempt to investigate the possible mechanism of action of the synthesized compounds based on structural similarity with sorafenib, all of them were tested for VEGFR-2 inhibitory activity at Bio Science Corporation (BPS, San Diego, CA, USA). The assay was performed using the Kinase-Glo Plus luminescence kinase assay kit (Promega, San Diego, CA, USA). It measures kinase activity by quantitating the amount of ATP remaining in solution following a kinase reaction. […].
The in-vitro enzyme inhibition determination for the synthesized compounds was carried out at Bio Science Corporation (BPS)-San Diego, CA, USA. The assay was performed using Kinase-Glo Plus luminescence kinase assay kit (Promega), where the kinase activity was measured by quantitating the amount of ATP remaining in solution following a kinase reaction. The luminescent signal from the assay is correlated with the amount of ATP present and is inversely correlated with the amount of kinase activity. Our compounds were diluted with 10% DMSO and 5 µL of the dilution was added to a 50 µL reaction so that the final concentration of DMSO is 1% in all of reactions. All of the enzymatic reactions were conducted at 30 °C for 40 min. The 50 µL reaction mixture contains 40 mM Tris, pH 7.4, 10 mM MgCl2, 0.1 mg/mL BSA, 1 mM DTT, 10 µM ATP, Kinase substrate and the enzyme. After the enzymatic reaction, 50 µL of Kinase-Glo Plus Luminescence kinase assay solution (Promega San Diego, CA, USA) was added to each reaction and incubate the plate for 5 min at room temperature. Luminescence signal was measured using a BioTek Synergy 2 microplate reader.
Kinase activity assays were performed in duplicate at each concentration. The luminescence data were analyzed using the computer software, Graphpad Prism. The difference between luminescence intensities in the absence of Kinase (Lut) and in the presence of Kinase (Luc) was defined as 100% activity (Lut − Luc). Using luminescence signal (Lu) in the presence of the compound, % activity was calculated as:% activity = {(Lut − Lu)(Lut − Luc)} × 100% where Lu = the luminescence intensity in the presence of the compound.

[4] = test system: three tumor cell lines (HCT116, Hep G2 and MCF-7); assay: In vitro anti-cancer activity stated for the tested cell lines together; assay type: cell-based, human; conditions: HCT116, Hep G2 and MCF-7 together
Procedure: as §1, §2
Exponentially growing cells from different cancer cell lines were trypsinized, counted and seeded at the appropriate densities (2000–1000 cells/0.33 cm^2 well) into 96-well microtiter plates. Cells then were incubated in a humidified atmosphere at 37 °C for 24 h. Then, cells were exposed to different concentrations of compounds (0.1, 10, 100, 1000 µM) for 72 h. Then the viability of treated cells was determined using MTT technique as follow. Media were removed; cells were incubated with 200 μL of 5% MTT solution/well (Sigma Aldrich, Darmstadt, Germany) and were allowed to metabolize the dye into a colored-insoluble formazan crystal for 2 h. […] Absorbance were measured at 570 nm using a Stat Fax^R 4200 plate reader (Awareness Technology, Inc., Awareness Technology, FL, USA). […]

IC50 [1] [µM]	IC50 [2] [µM]	IC50 [3] [µM]	inhibition at 10 µM (VEGFR-2; single concentration of 10 µM) [%]	melting point [°C]	SMILES	anti-cancer activity against HCT116 cell line (in words) [1]	anti-cancer activity against Hep G2 cell line (in words) [2]	loss of activity towards Hep G2 on conversion of thiourea VIIIa into the urea ([2]; relative to VIIIa) [fold]	anti-cancer activity against MCF-7 cell line (in words) [3]	activity against the tested cell lines (in words) [4]	inhibition at 10 µM (VEGFR-2) [%]
38	98	13.5	4	> 300	Cc1nc2ccccc2nc1Nc1ccc(NC(=O)Nc2ccccc2)cc1 [Compound VIIIb, 1-(4-((3-Methylquinoxalin-2-yl)amino)phenyl)-3-phenylurea]	weak activity	no significant inhibitory activity	10	moderate activity		
11	36	30	5	280 to 281	Cc1cccc(NC(=O)Nc2ccc(Nc3nc4ccccc4nc3C)cc2)c1 [Compound VIIId, 1-(4-((3-Methylquinoxalin-2-yl)amino)phenyl)-3-(m-tolyl)urea]	moderate anti-cancer activity	weak activity		weak activity		
27.5	115	138	4	234 to 235	Cc1nc2ccccc2nc1Nc1ccc(NC(=O)c2ccc(Cl)cc2)cc1 [Compound VIIb, 4-Chloro-N-(4-((3-methylquinoxalin-2-yl)amino)phenyl)benzamide]	weak activity					
15.5	27.5	21.4	7	283 to 285	O=C(Nc1ccc(Cl)cc1)c1cccc(Nc2nc3ccccc3nc2Cl)c1 [Compound XVb, N-(4-Chlorophenyl)-3-((3-chloroquinoxalin-2-yl)amino)benzamide]					moderate to weak activities	
0.62	1.2	0.9			COc1cccc2c1C(=O)c1c(O)c3c(c(O)c1C2=O)C[C@@](O)(C(=O)CO)C[C@@H]3O[C@H]1C[C@H](N)[C@H](O)[C@H](C)O1 [Doxorubicin, reference compound]						
21.9	22.9	22.9	3	198 to 199	Cc1ccc(S(=O)(=O)Nc2ccc(Nc3nc4ccccc4nc3C)cc2)cc1 [IXa, 4-Methyl-N-(4-((3-methylquinoxalin-2-yl)amino)phenyl) benzenesulphonamide]						
12	24.5	10.2	3	180 to 182	Cc1nc2ccccc2nc1Nc1ccc(NS(=O)(=O)c2ccc([N+](=O)[O-])cc2)cc1 [IXb, N-(4-((3-Methylquinoxalin-2-yl)amino)phenyl)-4-nitrobenzenesulfonamide]						
					CN[C@@H]1C[C@H]2O[C@@](C)([C@@H]1OC)n1c3ccccc3c3c4c(c5c6ccccc6n2c5c31)C(=O)NC4 [Staurosporine, staurosporine, reference compound]						100
537	955	692		240 to 241	Cc1nc2ccccc2nc1Nc1cccc(C(=O)Nc2ccc(Cl)cc2)c1 [VIb, N-(4-Chlorophenyl)-3-((3-methylquinoxalin-2-yl)amino)benzamide]					no significant inhibitory activity	
302	490	537	4	250 to 252	Cc1ccc(S(=O)(=O)Nc2ccc(Nc3nc4ccccc4nc3Cl)cc2)cc1 [XVIIIa, N-(4-((3-Chloroquinoxalin-2-yl)amino)phenyl)-4-methylbenzenesulfonamide]						
> 1000	> 1000	55	9	> 300	O=[N+]([O-])c1ccc(S(=O)(=O)Nc2ccc(Nc3nc4ccccc4nc3Cl)cc2)cc1 [XVIIIb, N-(4-((3-Chloroquinoxalin-2-yl)amino)phenyl)-4-nitrobenzenesulfonamide]						
309	575	170	10	190 to 191	S=C(Nc1ccccc1)Nc1ccc(Nc2nc3ccccc3nc2Cl)cc1 [XVIIa, 1-(4-((3-Chloroquinoxalin-2-yl)amino)phenyl)-3-phenylthiourea]						
170	513	148	10	280 to 281	O=C(Nc1ccccc1)Nc1ccc(Nc2nc3ccccc3nc2Cl)cc1 [XVIIb, 1-(4-((3-Chloroquinoxalin-2-yl)amino)phenyl)-3-phenylurea]						
257	616	692	6	> 300	O=C(Nc1ccc(Cl)cc1)Nc1ccc(Nc2nc3ccccc3nc2Cl)cc1 [XVIIc, 1-(4-Chlorophenyl)-3-(4-((3-chloroquinoxalin-2-yl)amino)phenyl)urea]						
190	513	64.5	5	> 300	Cc1cccc(NC(=O)Nc2ccc(Nc3nc4ccccc4nc3Cl)cc2)c1 [XVIId, 1-(4-((3-Chloroquinoxalin-2-yl)amino)phenyl)-3-(m-tolyl) urea]						
347	513	324	8	270 to 273	O=C(Nc1ccc(Nc2nc3ccccc3nc2Cl)cc1)c1ccccc1 [XVIa, N-(4-((3-Chloroquinoxalin-2-yl)amino)phenyl)benzamide]						
> 1000	> 1000	> 1000	4	233 to 235	O=C(Nc1ccc(Nc2nc3ccccc3nc2Cl)cc1)c1ccc(Cl)cc1 [XVIb, 4-Chloro-N-(4-((3-chloroquinoxalin-2-yl)amino)phenyl) benzamide]						
> 1000	> 1000	> 1000	4	235 to 236	COc1ccc(C(=O)Nc2ccc(Nc3nc4ccccc4nc3Cl)cc2)cc1 [XVIc, N-(4-((3-Chloroquinoxalin-2-yl)amino)phenyl)-4-methoxybenzamide]						
			3	245 to 246	Cc1ccc(C(=O)Nc2ccc(Nc3nc4ccccc4nc3Cl)cc2)cc1 [XVId, N-(4-((3-Chloroquinoxalin-2-yl)amino)phenyl)-4-methylbenzamide]						
